Measured values: ChEMBL document CHEMBL1136559, “Discovery, SAR, synthesis, pharmacokinetic and biochemical characterization of A-192411: a novel fungicidal lipopeptide-(I)” (Bioorg Med Chem Lett, 2003)
In brackets after ≈: the same amount, converted by molar mass. Starred links: 1 amine or outer side, 2 acyl side, 3 side chain; linkers in the order of their positions; H or OH if unused. Positions of bridges follow the written chain, without caps; N, C: chain ends. Non-standard residues stand in square brackets, D forms with d. Residues, ends and D or L forms follow the SMILES beside them. *: point of attachment. pTerphenylCO(4''-OnC5H11) = CCCCCOc1ccc(-c2ccc(-c3ccc(C(=O)*)cc3)cc2)cc1; Pro(cis-4-guanidino) = NC(N)=N[C@@H]1CN[C@H](C(=O)O)C1; hTyr(3-COCH2NH2) = NCC(=O)c1cc(CC[C@H](N)C(=O)O)ccc1O; X3 = CCCCCCCCOc1ccc(N2CCN(c3ccc(C(=O)*)cc3)CC2)cc1; X5 = CCCCCCCCN1CCN(c2ccc(-c3ccc(C(=O)*)cc3)cc2)CC1; X1 = NCC(=O)Nc1cc(CC[C@H](N[*:1])C(=O)[*:2])ccc1O; X4 = NCCC(=O)c1cc(CC[C@H](N[*:1])C(=O)[*:2])ccc1O; X6 = NCC(=O)[C@H]1C[C@@H](C(=O)[*:2])N([*:1])C1; X2 = NC(N)=N[C@H]1CC(C(=O)[*:2])N([*:1])C1; Pro(4S-NH2) = N[C@@H]1CN[C@H](C(=O)O)C1; Hyp = O=C(O)[C@@H]1C[C@@H](O)CN1; Orn = NCCC[C@H](N)C(=O)O

Columns and labels:
[1] = tested on: Candida albicans; assay: Antifungal activity against Candida albicans CAF-2; format: functional
[2] = tested on: Aspergillus niger; assay: Antifungal activity against Aspergillus niger ATCC 16404; format: functional
[3] = tested on: Candida albicans; assay: Antifungal activity against Candida albicans ATCC 38247; format: functional
[4] = tested on: Naganishia albida; assay: Antifungal activity against Cryptococcus albidus ATCC 34140; format: functional
[5] = tested on: Candida albicans; assay: Antifungal activity against Candida albicans ATCC 62376; format: functional
[6] = tested on: Candida albicans; assay: Antifungal activity against Candida albicans ATCC 10231; format: functional
[7] = tested on: Nakaseomyces glabratus; assay: Antifungal activity against Torulopsis glabrata ATCC 15545; format: functional
[8] = tested on: Candida albicans; assay: Antifungal activity against Candida albicans 579A; format: functional
[9] = tested on: Candida albicans; assay: Antifungal activity against Candida albicans CCH 442; format: functional
[10] = tested on: Kluyveromyces marxianus; assay: Antifungal activity against Candida kefyr ATCC 28838; format: functional
[11] = tested on: [Candida] zeylanoides; assay: Antifungal activity against Candida zeylanoides NRRL Y-112; format: functional
[12] = Area under the curve was measured in mouse after an iv dose of 1 mg/kg; format: ADME, organism-based; set-up: dose 1 mg/kg, route intravenous; details: in vivo
[13] = Terminal phase volume of distribution was measured in dog after an iv dose of 1 mg/kg; format: ADME, organism-based, Canis lupus familiaris; set-up: dose 1 mg/kg, route intravenous; details: in vivo, read-out: Va beta
[14] = Half-life was measured in dog after an iv dose of 1 mg/kg; format: ADME, organism-based, Canis lupus familiaris; set-up: dose 1 mg/kg, route intravenous; details: in vivo
[15] = Plasma clearance for the compound was measured in rat after an iv dose of 1 mg/kg; format: ADME, organism-based; set-up: dose 1 mg/kg, route intravenous; details: read-out: Clp (converted)
[16] = Half-life was measured in mouse after an iv dose of 1 mg/kg; format: ADME, organism-based; set-up: dose 1 mg/kg, route intravenous; details: in vivo
[17] = Volume of distribution was measured in mouse after an iv dose of 1 mg/kg; format: ADME, organism-based; set-up: dose 1 mg/kg, route intravenous; details: in vivo, read-out: Vv
[18] = Terminal phase volume of distribution was measured in mouse after an iv dose of 1 mg/kg; format: ADME, organism-based; set-up: dose 1 mg/kg, route intravenous; details: in vivo, read-out: Va beta
[19] = Area under the curve was measured in monkey after an iv dose of 1 mg/kg; format: ADME, organism-based; set-up: dose 1 mg/kg, route intravenous; details: cercopithecidae, in vivo
[20] = Half-life was measured in monkey after an iv dose of 1 mg/kg; format: ADME, organism-based; set-up: dose 1 mg/kg, route intravenous; details: cercopithecidae, in vivo
[21] = Volume of distribution was measured in monkey after an iv dose of 1 mg/kg; format: ADME, organism-based; set-up: dose 1 mg/kg, route intravenous; details: cercopithecidae, in vivo, read-out: Vv
[22] = Terminal phase volume of distribution was measured in monkey after an iv dose of 1 mg/kg; format: ADME, organism-based; set-up: dose 1 mg/kg, route intravenous; details: cercopithecidae, in vivo, read-out: Va beta
[23] = Plasma clearance for the compound was measured in monkey after an iv dose of 1 mg/kg; format: ADME, organism-based; set-up: dose 1 mg/kg, route intravenous; details: cercopithecidae, read-out: Clp (converted)
[24] = Plasma clearance for the compound was measured in dog after an iv dose of 1 mg/kg; format: ADME, organism-based, Canis lupus familiaris; set-up: dose 1 mg/kg, route intravenous; details: read-out: Clp (converted)
[25] = Area under the curve was measured in dog after an iv dose of 1 mg/kg; format: ADME, organism-based, Canis lupus familiaris; set-up: dose 1 mg/kg, route intravenous; details: in vivo
[26] = Terminal phase volume of distribution was measured in rat after an iv dose of 1 mg/kg; format: ADME, organism-based; set-up: dose 1 mg/kg, route intravenous; details: in vivo, read-out: Va beta
[27] = Half-life was measured in rat after an iv dose of 1 mg/kg; format: ADME, organism-based; set-up: dose 1 mg/kg, route intravenous; details: in vivo
[28] = Volume of distribution was measured in dog after an iv dose of 1 mg/kg; format: ADME, organism-based, Canis lupus familiaris; set-up: dose 1 mg/kg, route intravenous; details: in vivo, read-out: Vv
[29] = Plasma clearance for the compound was measured in mouse after an iv dose of 1 mg/kg; format: ADME, organism-based; set-up: dose 1 mg/kg, route intravenous; details: read-out: Clp (converted)
[30] = Volume of distribution was measured in rat after an iv dose of 1 mg/kg; format: ADME, organism-based; set-up: dose 1 mg/kg, route intravenous; details: in vivo, read-out: Vv
[31] = Area under the curve was measured in rat after an iv dose of 1 mg/kg; format: ADME, organism-based; set-up: dose 1 mg/kg, route intravenous; details: in vivo
[32] = Candida albicans, read-out: MIC
[33] = Aspergillus niger, ATCC 16404, read-out: MIC
[34] = Candida albicans, ATCC 38247, read-out: MIC
[35] = Naganishia albida, ATCC 34140, read-out: MIC
[36] = Candida albicans, ATCC 62376, read-out: MIC
[37] = Candida albicans, ATCC 10231, read-out: MIC
[38] = Nakaseomyces glabratus, ATCC 15545, read-out: MIC
[39] = Kluyveromyces marxianus, ATCC 28838, read-out: MIC
[40] = Dujonia zeylanoides, read-out: MIC

Compound	MIC [1, 32]	MIC [2, 33]	MIC [3, 34]	MIC [4, 35]	MIC [5, 36]	MIC [6, 37]	MIC [7, 38]	MIC [8, 32]	MIC [9, 32]	MIC [10, 39]	MIC [11, 40]	also measured
CCCCCOc1ccc(-c2ccc(-c3ccc(C(=O)N[C@H]4CCCNC(=O)[C@@H]5C[C@H](N=C(N)N)CN5C(=O)[C@H]([C@@H](C)O)NC(=O)[C@H](CCc5ccc(O)c(C(=O)CN)c5)NC(=O)[C@@H]5C[C@@H](O)CN5C(=O)[C@H]([C@@H](C)O)NC4=O)cc3)cc2)cc1 (stereo in doubt; 4)	–	–	–	–	–	–	–	–	–	–	–	MIC [1]: 0.39 µg/mL (≈ 0.336 µM); MIC [2]: 6.25 µg/mL (≈ 5.39 µM); MIC [3]: 0.78 µg/mL (≈ 0.672 µM); MIC [4]: 6.25 µg/mL (≈ 5.39 µM); MIC [5]: 0.39 µg/mL (≈ 0.336 µM); MIC [6]: 0.78 µg/mL (≈ 0.672 µM); MIC [7]: 1.56 µg/mL (≈ 1.34 µM); MIC [8]: 0.39 µg/mL (≈ 0.336 µM); MIC [9]: 0.78 µg/mL (≈ 0.672 µM); MIC [10]: 0.78 µg/mL (≈ 0.672 µM); MIC [11]: 1.56 µg/mL (≈ 1.34 µM)
CCCCCOc1ccc(-c2ccc(-c3ccc(C(=O)N[C@H]4CCCNC(=O)C5C[C@H](N=C(N)N)CN5C(=O)[C@H]([C@@H](C)O)NC(=O)[C@H](CCc5ccc(O)c(NC(=O)CN)c5)NC(=O)[C@@H]5C[C@@H](O)CN5C(=O)[C@H]([C@@H](C)O)NC4=O)cc3)cc2)cc1 (stereo not given in full) ({pTerphenylCO(4''-OnC5H11)}-[Orn]T[Hyp][X1]T[X2]; lactam 1-C)	–	–	–	–	–	–	–	–	–	–	–	AUC [12]: 16800 ng·h/mL; Vd [13]: 1.3 L/kg; half-life [14]: 30.4 h; clearance [15]: 2.33 mL/min/kg; half-life [16]: 11.5 h; Vd [17]: 0.4 L/kg; Vd [18]: 1 L/kg; AUC [19]: 6550 ng·h/mL; half-life [20]: 3.3 h; Vd [21]: 0.2 L/kg; Vd [22]: 0.9 L/kg; clearance [23]: 2.83 mL/min/kg; clearance [24]: 0.5 mL/min/kg; AUC [25]: 36400 ng·h/mL; Vd [26]: 2.2 L/kg; half-life [27]: 7.4 h; Vd [28]: 0.6 L/kg; clearance [29]: 1 mL/min/kg; Vd [30]: 0.6 L/kg; AUC [31]: 11700 ng·h/mL
CCCCCOc1ccc(-c2ccc(-c3ccc(C(=O)N[C@H]4CCCNC(=O)[C@@H]5C[C@H](N)CN5C(=O)[C@H]([C@@H](C)O)NC(=O)[C@H](CCc5ccc(O)c(C(=O)CN)c5)NC(=O)[C@@H]5C[C@@H](O)CN5C(=O)[C@H]([C@@H](C)O)NC4=O)cc3)cc2)cc1 ({pTerphenylCO(4''-OnC5H11)}-[Orn]T[Hyp][hTyr(3-COCH2NH2)]T[Pro(4S-NH2)]; lactam 1-C)	0.1 µg/mL (≈ 0.0894 µM)	0.2 µg/mL (≈ 0.179 µM)	0.2 µg/mL (≈ 0.179 µM)	3.2 µg/mL (≈ 2.86 µM)	0.1 µg/mL (≈ 0.0894 µM)	0.1 µg/mL (≈ 0.0894 µM)	0.2 µg/mL (≈ 0.179 µM)	0.01 µg/mL (≈ 0.00894 µM)	0.01 µg/mL (≈ 0.00894 µM)	0.78 µg/mL (≈ 0.697 µM)	0.1 µg/mL (≈ 0.0894 µM)	–
CCCCCCCCOc1ccc(N2CCN(c3ccc(C(=O)N[C@H]4CCCNC(=O)[C@@H]5C[C@H](C(=O)CN)CN5C(=O)[C@H]([C@@H](C)O)NC(=O)[C@H](CCc5ccc(O)c(C(=O)CN)c5)NC(=O)[C@@H]5C[C@@H](O)CN5C(=O)[C@H]([C@@H](C)O)NC4=O)cc3)CC2)cc1 (X3-[Orn]T[Hyp][hTyr(3-COCH2NH2)]T[X6]; lactam 1-C)	0.1 µg/mL (≈ 0.0826 µM)	12.5 µg/mL (≈ 10.3 µM)	0.39 µg/mL (≈ 0.322 µM)	12.5 µg/mL (≈ 10.3 µM)	0.39 µg/mL (≈ 0.322 µM)	0.78 µg/mL (≈ 0.644 µM)	1.56 µg/mL (≈ 1.29 µM)	0.78 µg/mL (≈ 0.644 µM)	0.78 µg/mL (≈ 0.644 µM)	1.56 µg/mL (≈ 1.29 µM)	1.56 µg/mL (≈ 1.29 µM)	–
CCCCCOc1ccc(-c2ccc(-c3ccc(C(=O)N[C@H]4CCCNC(=O)[C@@H]5C[C@H](N=C(N)N)CN5C(=O)[C@H]([C@@H](C)O)NC(=O)[C@H](CCc5ccc(O)c(C(=O)CCN)c5)NC(=O)[C@@H]5C[C@@H](O)CN5C(=O)[C@H]([C@@H](C)O)NC4=O)cc3)cc2)cc1 ({pTerphenylCO(4''-OnC5H11)}-[Orn]T[Hyp][X4]T[Pro(cis-4-guanidino)]; lactam 1-C)	0.2 µg/mL (≈ 0.17 µM)	6.25 µg/mL (≈ 5.32 µM)	0.2 µg/mL (≈ 0.17 µM)	12.5 µg/mL (≈ 10.6 µM)	0.2 µg/mL (≈ 0.17 µM)	0.39 µg/mL (≈ 0.332 µM)	1.56 µg/mL (≈ 1.33 µM)	0.2 µg/mL (≈ 0.17 µM)	0.2 µg/mL (≈ 0.17 µM)	1.56 µg/mL (≈ 1.33 µM)	0.39 µg/mL (≈ 0.332 µM)	–
CCCCCCCCN1CCN(c2ccc(-c3ccc(C(=O)N[C@H]4CCCNC(=O)[C@@H]5C[C@H](N=C(N)N)CN5C(=O)[C@H]([C@@H](C)O)NC(=O)[C@H](CCc5ccc(O)c(C(=O)CN)c5)NC(=O)[C@@H]5C[C@@H](O)CN5C(=O)[C@H]([C@@H](C)O)NC4=O)cc3)cc2)CC1 (X5-[Orn]T[Hyp][hTyr(3-COCH2NH2)]T[Pro(cis-4-guanidino)]; lactam 1-C)	0.1 µg/mL (≈ 0.0837 µM)	3.12 µg/mL (≈ 2.61 µM)	0.2 µg/mL (≈ 0.167 µM)	12.5 µg/mL (≈ 10.5 µM)	0.2 µg/mL (≈ 0.167 µM)	0.2 µg/mL (≈ 0.167 µM)	1.56 µg/mL (≈ 1.31 µM)	0.2 µg/mL (≈ 0.167 µM)	0.1 µg/mL (≈ 0.0837 µM)	1.56 µg/mL (≈ 1.31 µM)	0.2 µg/mL (≈ 0.167 µM)	–
